Our source for the TGI and GI50 values is PubChem BioAssay (NCI).

Among the test systems are 786-0 renal; HOP-62 NSCLC; HOP-92 NSCLC; K-562 leukemia; KM12 colon; NCI-H522 lung; OVCAR-4 ovarian; SK-MEL-28 melanoma; SN12C renal.
Assay in all cases: DTP human tumour cell line panel, 48 h

≈ marks a conversion by molar mass, not a printed value.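 Five compound concentrations were applied to cells in 96-well plates for 48 hours; endpoints were derived by simple linear interpolation of the resulting dose-response curve. At the GI50, growth is halved. At the TGI there is no net growth.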

As to `COc1ccc(/C(Cl)=C(\C=O)c2ccc([N+](=O)[O-])cc2)cc1`, the TGI with 786-0 renal is 31.6 µM; in the assay on HOP-62 NSCLC it was 52.8 µM; with HOP-92 NSCLC it was 31.2 µM; in the assay on K-562 leukemia it was over 37.5 µM; in the assay on KM12 colon, 11.4 µM; in the assay on NCI-H522 lung it was over 46.8 µM. The TGI in the assay with OVCAR-4 ovarian is 57.3 µM; in the assay on SK-MEL-28 melanoma it was over 93.8 µM; in the assay on SN12C renal it was 49.1 µM.
With `O=C(/C=C/c1c(O)ccc2ccccc12)c1ccccc1`, the TGI with 786-0 renal, in the assay on HOP-62 NSCLC, in the assay on HOP-92 NSCLC, in the assay with K-562 leukemia, in the assay on KM12 colon and with NCI-H522 lung was over 100 µM in each case. Moreover, the TGI in the assay on OVCAR-4 ovarian, with SK-MEL-28 melanoma and with SN12C renal was over 100 µM in each case.
For the compound `N.N.O=C([O-])P(=O)([O-])[O-].[Na+].[Pt+4]`, the GI50 in the assay on 786-0 renal, in the assay on HOP-62 NSCLC, in the assay on K-562 leukemia, with KM12 colon, in the assay with NCI-H522 lung and in the assay on OVCAR-4 ovarian was over 100 µM in each case. Moreover, the GI50 in the assay on SK-MEL-28 melanoma and in the assay on SN12C renal was over 100 µM each time. Moreover, the TGI in the assay with 786-0 renal, in the assay on HOP-62 NSCLC, in the assay on K-562 leukemia, in the assay on KM12 colon, in the assay on NCI-H522 lung and in the assay on OVCAR-4 ovarian was over 100 µM in each case. Further, the TGI in the assay with SK-MEL-28 melanoma and in the assay on SN12C renal was over 100 µM each time.
Turning to `Cc1[nH]c2ccccc2c1C1Cc2ccccc2N1C(=O)/C(Cl)=C/c1ccccc1` (stereo not given), the TGI with 786-0 renal, in the assay on HOP-62 NSCLC, with HOP-92 NSCLC, with K-562 leukemia, with KM12 colon and in the assay with NCI-H522 lung was over 100 µM throughout. Further, the concentration for total growth inhibition (TGI) in the assay on OVCAR-4 ovarian, with SK-MEL-28 melanoma and in the assay with SN12C renal was over 100 µM throughout.
For `C/C=C1/C(=C/c2[nH]c(/C=c3\[nH]/c(=C/C4=NC(=O)C(CC)=C4C)c(C)c3CCC(=O)O)c(CCC(=O)O)c2C)NC(=O)C1C` (stereo not given), the GI50 in the assay with 786-0 renal is over 150 µg/mL; with HOP-62 NSCLC, over 150 µg/mL; in the assay on HOP-92 NSCLC, 103 µg/mL (≈ 175 µM); with K-562 leukemia it was over 150 µg/mL; with NCI-H522 lung it was over 150 µg/mL; in the assay on OVCAR-4 ovarian, over 150 µg/mL. In addition, the GI50 in the assay with SK-MEL-28 melanoma and in the assay on SN12C renal was over 150 µg/mL each time. For the same compound, the TGI in the assay with 786-0 renal, in the assay with HOP-62 NSCLC, with HOP-92 NSCLC, in the assay on K-562 leukemia, with NCI-H522 lung and with OVCAR-4 ovarian was over 150 µg/mL throughout. In addition, the TGI in the assay with SK-MEL-28 melanoma and with SN12C renal was over 150 µg/mL in each case.
Turning to `Cc1nc2ccccc2c(=O)n1-c1ccccc1F`, the TGI in the assay with 786-0 renal, in the assay on HOP-62 NSCLC, with HOP-92 NSCLC, with K-562 leukemia, in the assay on KM12 colon and in the assay on NCI-H522 lung was over 100 µM each time. Moreover, the TGI in the assay on OVCAR-4 ovarian, in the assay with SK-MEL-28 melanoma and in the assay on SN12C renal was over 100 µM each time.
For the compound `COC1=CC2(C=CC1=O)c1cc(OC)c(OC)cc1CCN2C(=O)c1ccccc1` (stereo not given), the TGI with 786-0 renal, in the assay with HOP-92 NSCLC, with K-562 leukemia, in the assay with KM12 colon, in the assay with NCI-H522 lung and with SK-MEL-28 melanoma was over 100 µM throughout. The compound further registered a TGI in the assay on SN12C renal of over 100 µM.
For `CCCCCCC(=O)C/C(=N/NC(N)=S)C(=O)NC1C2CC3CC(C2)CC1C3` (stereo not given), the TGI in the assay with 786-0 renal, with HOP-62 NSCLC, with HOP-92 NSCLC, in the assay with KM12 colon, with OVCAR-4 ovarian and in the assay on SK-MEL-28 melanoma was over 100 µM throughout. Besides, the TGI with SN12C renal is over 100 µM.
Consider `COc1ccc(CNc2nc3cc(C(F)(F)F)ccc3nc2C)cc1OC`, for which the total growth inhibition concentration (TGI) with 786-0 renal is 58.9 µM; in the assay on HOP-62 NSCLC, 69.9 µM; in the assay with K-562 leukemia it was over 100 µM; in the assay on KM12 colon, 83 µM; in the assay on NCI-H522 lung, 92.7 µM; in the assay with OVCAR-4 ovarian it was 43.1 µM. For the same compound, the TGI in the assay on SK-MEL-28 melanoma and with SN12C renal was over 100 µM throughout.
For the compound `OC/C=C(\I)CCCOCOCc1ccccc1`, the TGI is over 100 µM in the assay with 786-0 renal; over 100 µM in the assay on HOP-62 NSCLC; 53.4 µM with HOP-92 NSCLC; over 100 µM in the assay on K-562 leukemia; over 100 µM in the assay on KM12 colon; 80.2 µM in the assay with NCI-H522 lung. Moreover, the TGI in the assay on OVCAR-4 ovarian, in the assay with SK-MEL-28 melanoma and with SN12C renal was over 100 µM each time.
Turning to `N#C/C(=C\c1cc2ccccc2c2ccccc12)c1ccccc1`, the TGI in the assay on 786-0 renal was 18 µM; in the assay with HOP-62 NSCLC it was 17.6 µM; in the assay on HOP-92 NSCLC, over 71.7 µM; with K-562 leukemia, 13.7 µM; with KM12 colon, over 52.3 µM; in the assay on NCI-H522 lung, over 29.9 µM. The results for the total growth inhibition concentration (TGI) with OVCAR-4 ovarian, in the assay with SK-MEL-28 melanoma and in the assay on SN12C renal were 34.6 µM, over 100 µM and over 95.8 µM, respectively.
Regarding `COc1cc2c(c(OC)c1)C1(CC(CC#N)C2)SCCS1` (stereo not given), the TGI was over 100 µM with 786-0 renal; over 100 µM in the assay with HOP-62 NSCLC; over 100 µM in the assay on K-562 leukemia; over 100 µM with KM12 colon; 4.69 µM in the assay on NCI-H522 lung; over 100 µM in the assay on OVCAR-4 ovarian. Also, the TGI in the assay on SK-MEL-28 melanoma and with SN12C renal was over 100 µM throughout.
Regarding `CC1=N/C(=C\c2cccc([N+](=O)[O-])c2)C(=O)O1`, the TGI in the assay on 786-0 renal, in the assay on HOP-62 NSCLC, in the assay with HOP-92 NSCLC, in the assay on K-562 leukemia, with KM12 colon and in the assay on NCI-H522 lung was over 100 µM each time. Moreover, the TGI in the assay on SK-MEL-28 melanoma and with SN12C renal was over 100 µM in each case.
As for `N#CCC(=O)NC1C2CC3CC(C2)CC1C3` (stereo not given), the TGI was 35.8 µM in the assay with 786-0 renal; 41.7 µM with HOP-62 NSCLC; 36.1 µM in the assay on HOP-92 NSCLC; over 100 µM with K-562 leukemia; 32.5 µM with KM12 colon; 31 µM with NCI-H522 lung. Moreover, the values for the TGI in the assay on OVCAR-4 ovarian, in the assay on SK-MEL-28 melanoma and with SN12C renal were 50.5 µM, 43.3 µM and 31.5 µM, respectively.
With `CN(C)C(c1ccccc1)C(O)c1ccccc1` (stereo not given), the TGI with 786-0 renal, with HOP-62 NSCLC, in the assay with K-562 leukemia, in the assay on KM12 colon, with NCI-H522 lung and with SK-MEL-28 melanoma was over 100 µM in each case. This compound also displayed a TGI in the assay with SN12C renal of over 100 µM.
